Results on 11 compounds are retold here after ChEMBL document CHEMBL1201862, “PubChem BioAssay data set” (2004).

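Briefly, cells in 96-well plates were exposed to five compound concentrations for 48 h, and endpoints were estimated by linear interpolation. Abbreviation: GI50, concentration required for 50% inhibition of growth.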 The source made the active and inactive calls. Rule as the data show it: active = GI50 up to about 1.1 µM and inactive = higher. Starred links: 1 amine or outer side, 2 acyl side, 3 side chain; linkers in the order of their positions; H or OH if unused. Non-standard residues stand in square brackets, D forms with d. Residues, ends and D or L forms follow the SMILES beside them. ξ: configuration not given here. Ile(3ξ) = CCC(C)[C@H](N)C(=O)O; X35 = C=CCC(O[*:1])C(=O)[*:2]; NMeV = CN[C@H](C(=O)O)C(C)C; NMeA = CN[C@@H](C)C(=O)O; βAla = NCCC(=O)O

One may read the GI50 as the concentration at which growth is held to half of that of the control.

Among the test systems are CCRF-CEM; EKVX; HCT-116; LOX IMVI; MOLT-4; NCI-H226; NCI-H23; OVCAR-3; OVCAR-5; RXF 393; SF-268; SF-539; SK-MEL-5; SN12C; SR; TK-10; U-251; UACC-62.
Holding throughout (test): DTP human tumour cell line panel, 48 h

`C=CCC1OC(=O)CCNC(=O)[C@H](C)N(C)C(=O)[C@H](C(C)C)N(C)C(=O)[C@H](C(C)CC)NC(=O)[C@@H]2CCCN2C1=O` (some centres undefined) (cyclo([Ile(3ξ)][NMeV][NMeA][βAla][X35]P)): the GI50 in the test on CCRF-CEM is 3.62 µM (inactive); in the test with EKVX, > 100 µM (inactive); in the test on HCT-116 it was 3.94 µM (inactive); with LOX IMVI, 9.16 µM (inactive); in the test on MOLT-4, 3.57 µM (inactive); in the test with NCI-H226, 7.55 µM (inactive). The GI50 in the test on NCI-H23 is 26.7 µM (inactive); with OVCAR-3, 13.3 µM (inactive); with OVCAR-5, 13.6 µM (inactive); with RXF 393, > 100 µM (inactive); with SF-268, 4.12 µM (inactive); in the test on SF-539 it was 10.1 µM (inactive). The GI50 with SK-MEL-5 is 2.97 µM (inactive); with SN12C, 11.5 µM (inactive); with SR, 4.95 µM (inactive); in the test with TK-10, > 38.3 µM (inactive); in the test on U-251, > 53 µM (inactive); in the test with UACC-62, 4.08 µM (inactive).
As to `CS(=O)(=O)Sc1ccc(Cl)cc1`, the GI50 in the test with CCRF-CEM is 2.54 µM (inactive); with EKVX, 3.82 µM (inactive); in the test with HCT-116 it was 5.7 µM (inactive); in the test with LOX IMVI, 3.36 µM (inactive); with MOLT-4, 3.53 µM (inactive); in the test on NCI-H226 it was 7.48 µM (inactive). Moreover, the GI50 in the test with NCI-H23 is 13.8 µM (inactive); in the test on OVCAR-3, 5.87 µM (inactive); in the test on OVCAR-5, 17.6 µM (inactive); in the test with RXF 393 it was 7.89 µM (inactive); in the test with SF-268, 1.63 µM (inactive); with SF-539, 2.55 µM (inactive). The GI50 in the test on SK-MEL-5 was 7.83 µM (inactive); with SN12C it was 3.69 µM (inactive); in the test on SR, 3.59 µM (inactive); in the test on TK-10, 14 µM (inactive); with U-251 it was 2.84 µM (inactive).
`CCCCCCCCCCCc1c(O)c(=O)c2c(oc3c(=O)c(CCCCCCCCCCC)c(O)c(=O)c3n2-c2ccc(N(C)C)cc2)c1=O`: the GI50 with CCRF-CEM was 26 µM (inactive); in the test with EKVX it was 24 µM (inactive); in the test with HCT-116, 17.6 µM (inactive); in the test with LOX IMVI it was 24.2 µM (inactive); in the test on MOLT-4, > 100 µM (inactive); in the test with NCI-H226 it was 19.3 µM (inactive). Further, the GI50 with NCI-H23 is 28.7 µM (inactive); in the test on OVCAR-3, 18.8 µM (inactive); with OVCAR-5 it was 23.8 µM (inactive); in the test with RXF 393, 25 µM (inactive); in the test on SF-268, 22.2 µM (inactive); in the test with SF-539 it was 20.3 µM (inactive). For the same compound, the GI50 in the test on SK-MEL-5 is 18.7 µM (inactive); with SN12C it was 19.2 µM (inactive); in the test with SR it was 65.2 µM (inactive); in the test with TK-10, 15.6 µM (inactive); with U-251, 21.4 µM (inactive); in the test with UACC-62, 18 µM (inactive).
Take `O=C1[C@H]2ON(c3ccccc3)C(c3cccc([N+](=O)[O-])c3)[C@H]2C(=O)N1c1ccc(Cc2ccc(N3C(=O)[C@@H]4ON(c5ccccc5)C(c5cccc([N+](=O)[O-])c5)[C@@H]4C3=O)cc2)cc1` (some centres undefined): the GI50 with CCRF-CEM, in the test with EKVX, in the test with HCT-116, with LOX IMVI, with MOLT-4 and in the test on NCI-H226 was > 100 µM (inactive) throughout. For the same compound, the GI50 in the test on NCI-H23, in the test on OVCAR-3, with OVCAR-5, in the test with RXF 393, with SF-268 and with SF-539 was > 100 µM (inactive) throughout. The GI50 with SK-MEL-5 is 43.9 µM (inactive); in the test on SN12C it was > 100 µM (inactive); in the test with SR, > 100 µM (inactive); in the test with TK-10 it was > 100 µM (inactive); in the test with U-251, > 100 µM (inactive); with UACC-62, 47.4 µM (inactive).
On to `CN(C)c1nc(Oc2nc(N(C)C)nc(N(C)C)n2)nc(N(C)C)n1`, for which the GI50 with CCRF-CEM, with EKVX, in the test with HCT-116, in the test with LOX IMVI, in the test on MOLT-4 and in the test with NCI-H226 was > 100 µM (inactive) throughout. Moreover, the GI50 with NCI-H23 was 72.6 µM (inactive); with OVCAR-3 it was 46 µM (inactive); in the test on OVCAR-5 it was > 100 µM (inactive); in the test on RXF 393, > 100 µM (inactive); in the test with SF-268, > 100 µM (inactive); in the test on SF-539 it was > 100 µM (inactive). The GI50 was > 100 µM (inactive) in the test with SK-MEL-5; > 100 µM (inactive) in the test with SN12C; > 100 µM (inactive) in the test on SR; > 100 µM (inactive) in the test with TK-10; 75.2 µM (inactive) with U-251; > 100 µM (inactive) with UACC-62.
As for `COCN/C(N)=N/C#N`, the GI50 in the test on CCRF-CEM was > 100 µM (inactive); with EKVX, > 100 µM (inactive); with HCT-116, 75 µM (inactive); with MOLT-4 it was > 100 µM (inactive); with NCI-H226, > 100 µM (inactive); in the test on NCI-H23, > 100 µM (inactive). Besides, the GI50 was > 100 µM (inactive) in the test on OVCAR-3; > 100 µM (inactive) in the test on OVCAR-5; > 100 µM (inactive) in the test with RXF 393; 85.9 µM (inactive) in the test on SF-268; > 100 µM (inactive) with SF-539; > 100 µM (inactive) in the test with SK-MEL-5. Moreover, the GI50 was > 100 µM (inactive) in the test with SN12C; 15.1 µM (inactive) with SR; > 100 µM (inactive) with TK-10; 27.4 µM (inactive) in the test with U-251; > 100 µM (inactive) in the test with UACC-62.
Regarding `NCc1cc(O)c(O)c(O)c1`, the GI50 with CCRF-CEM is 38.5 µM (inactive); with EKVX it was > 100 µM (inactive); in the test with HCT-116 it was 63.5 µM (inactive); in the test with LOX IMVI, 34.8 µM (inactive); in the test with MOLT-4, > 100 µM (inactive); in the test with NCI-H226, > 100 µM (inactive). Further, the GI50 in the test with OVCAR-3, in the test on OVCAR-5, with RXF 393, in the test on SF-268, with SK-MEL-5 and in the test with SN12C was > 100 µM (inactive) throughout. Besides, the GI50 in the test on SR was 91.2 µM (inactive); in the test with TK-10, > 100 µM (inactive); with U-251, > 100 µM (inactive); in the test with UACC-62, 59.3 µM (inactive).
`CC(C)S(=O)(=O)n1c(N)nc2ccc(/C(=N/O)c3ccccc3)cc21` [ENVIROXIME]: the GI50 with CCRF-CEM was 10.6 µM (inactive); in the test on EKVX, 16.4 µM (inactive); with HCT-116 it was 18.6 µM (inactive); in the test with MOLT-4 it was 14 µM (inactive); in the test on NCI-H226, 4.63 µM (inactive); with NCI-H23, 21.8 µM (inactive). The GI50 was 18.6 µM (inactive) in the test on OVCAR-3; 21 µM (inactive) with OVCAR-5; 11.4 µM (inactive) in the test with RXF 393; 27.7 µM (inactive) with SF-268; 15 µM (inactive) in the test with SF-539; 27.8 µM (inactive) in the test on SN12C. For the same compound, the GI50 in the test with SR was 0.223 µM (active); in the test with TK-10 it was 32.4 µM (inactive); in the test with U-251, 39.3 µM (inactive); with UACC-62 it was 23.1 µM (inactive).
In the case of `C/C(=N\NS(=O)(=O)c1ccc(C)cc1)C(CN1CCCCC1)C(c1ccccc1)c1c(O)c2ccccc2oc1=O` (centres undefined), the GI50 with CCRF-CEM, in the test on EKVX, in the test on HCT-116, in the test with LOX IMVI, in the test on NCI-H226 and with NCI-H23 was > 100 µM (inactive) each time. In addition, the GI50 was > 100 µM (inactive) with OVCAR-3; > 100 µM (inactive) in the test on OVCAR-5; 39.6 µM (inactive) with RXF 393; > 100 µM (inactive) with SF-268; > 100 µM (inactive) in the test on SF-539; > 100 µM (inactive) with SK-MEL-5. Moreover, the GI50 with SN12C was > 100 µM (inactive); in the test with SR, 57 µM (inactive); with TK-10, > 100 µM (inactive); in the test on U-251, > 100 µM (inactive); in the test on UACC-62, > 100 µM (inactive).
As for `CC(C)NC1CCCCC2c3ccccc3C12O` (centres undefined), the GI50 in the test on CCRF-CEM, with EKVX, with HCT-116, in the test on LOX IMVI, with MOLT-4 and with NCI-H226 was > 100 µM (inactive) throughout. Also, the GI50 in the test with NCI-H23, with RXF 393, in the test on SF-268, with SK-MEL-5, in the test on SN12C and with SR was > 100 µM (inactive) in each case. The GI50 in the test on TK-10, in the test on U-251 and with UACC-62 was > 100 µM (inactive) each time.
With `Clc1ccc(/N=N/c2nc3ccccc3nc2/N=N/c2ccc(Cl)cc2Cl)c(Cl)c1`, the GI50 in the test on EKVX is > 100 µM (inactive); with HCT-116 it was > 100 µM (inactive); with LOX IMVI it was > 100 µM (inactive); in the test with MOLT-4, 29.4 µM (inactive); in the test with NCI-H226 it was > 100 µM (inactive); in the test with NCI-H23 it was > 100 µM (inactive). For the same compound, the GI50 in the test with OVCAR-3 is 70 µM (inactive); in the test with RXF 393, > 100 µM (inactive); with SF-268, > 100 µM (inactive); in the test with SF-539, > 100 µM (inactive); with SN12C, > 100 µM (inactive); in the test on SR, 33.5 µM (inactive). Besides, the GI50 in the test with TK-10 and with U-251 was > 100 µM (inactive) in each case.
